The values that follow come from the supplement of paper PMC10307832.

Holding throughout (test): relative viability (nuclei count vs DMSO), 5 days (fraction); higher = more cells survive
Compound in assay [1]: CC(C)C[C@@H](C(=O)N[C@H](C(=O)OC1CCCC1)c1ccccc1)[C@H](O)C(=O)NO [Tosedostat] + CS(=O)(=O)N1CCN(Cc2cc3nc(-c4cccc5[nH]ncc45)nc(N4CCOCC4)c3s2)CC1 [Pictilisib] (partner 1 µM)
In short, it runs like this: (§1)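 The day after seeding in 1536-well plates, lung cancer cell lines were treated by pin tool with a single drug, or with a fixed anchor-drug dose together with five library-drug doses (not always all listed) in √10 steps. After 5 days, a combined fix-and-stain solution (final 0.05% Triton X-100, 1% formaldehyde, 1 ug/ml Hoechst) was added. Nuclei counted on 4× images gave relative viability as treated counts over vehicle counts, reported as the median of duplicate plates.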

Compound in assay [2]: CC1=NN=C(O1)C2=NN=C(C=C2)N3CCC(CC3)OC4=C(C=CC(=C4)F)Cl + COc1cc2c(Oc3ccc(NC(=O)C4(C(=O)Nc5ccc(F)cc5)CC4)cc3F)ccnc2cc1OCCCN1CCOCC1 [Foretinib] (partner 0.25 µM)
An outline of the steps: as §1

Compound in assay [3]: CC1=NN=C(O1)C2=NN=C(C=C2)N3CCC(CC3)OC4=C(C=CC(=C4)F)Cl + CS(=O)(=O)CCNCc1ccc(-c2ccc3ncnc(Nc4ccc(OCc5cccc(F)c5)c(Cl)c4)c3c2)o1 [Lapatinib] (partner 2 µM)
In short, it runs like this:
as §1

Compound in assay [4]: CC1=NN=C(O1)C2=NN=C(C=C2)N3CCC(CC3)OC4=C(C=CC(=C4)F)Cl + O=C(CCCCCCC(=O)Nc1ccccc1)NO [Vorinostat] (partner 1 µM)
In short, it runs like this:
as §1

On to UMC-11, for which the relative viability turned out to be 0.911 in assay [1] (first compound 0.02 µM); 0.807 in assay [1] (first compound 0.06325 µM); 0.782 in assay [1] (first compound 0.2 µM); 0.705 in assay [1] (first compound 0.6325 µM); 0.828 in assay [1] (first compound 2 µM); 0.539 in assay [2] (first compound 0.253 µM). Also, the relative viability in assay [2] (first compound 0.8 µM) stood at 0.57; in assay [2] (first compound 2.53 µM), 0.543; in assay [2] (first compound 8 µM) it was 0.501; in assay [3] (first compound 0.253 µM) it was 0.641; in assay [3] (first compound 0.8 µM), 0.645; in assay [3] (first compound 2.53 µM), 0.777. In addition, the relative viability in assay [3] (first compound 8 µM) was 0.595; in assay [4] (first compound 0.253 µM) it was 0.361; in assay [4] (first compound 0.8 µM), 0.351; in assay [4] (first compound 2.53 µM), 0.431; in assay [4] (first compound 8 µM), 0.383.
